# Assay results as given in the RepoRT retention time repository.
# Assay: RP, Waters ACQUITY UPLC BEH C18, 50 × 2.1 mm, 1.7 µm, 40 °C, 0.6 mL/min, estimated dead time 0.18 min; A: water + 0.1% formic acid, pH 3; B: acetonitrile + 0.1% formic acid, pH 3; gradient (min/%B) 0/5 7/100 8/100
# Conditions: stereoisomer not certain
row,LC retention time [min],Structure (SMILES)
1,4.87,CCC(C)C(=O)C1=C(O)C2(CC=C(C)C)CC(CCC(C)(C)NC(C)=O)C(C)(C)C(C(CC(=O)O)c3ccccc3)=C2OC1=O (configuration not stated)
2,1.4,C/C=C1/CN(C)[C@@H]2Cc3c([nH]c4ccccc34)C(=O)C[C@H]1C2C(=O)OC (some centres not stated)
3,0.226,"Cn1c(N)nc2c(ncn2C)c1=O [2-amino-1,9-dimethyl-6,9-dihydro-1H-purin-6-one]"
4,2.62,"COc1cccc2nc3occc3c(OC)c12 [4,5-dimethoxyfuro[2,3-b]quinoline]"
5,1.54,O=C1c2c(O)cc(O)c(C3C(=O)c4c(O)cc(O)cc4OC3c3ccc(O)cc3)c2OC(c2ccc(O)cc2)C1O (configuration not stated)
6,6.96,CCCCCCCCCCCCCCCC(=O)OC12CC(C)C3(O)C(C4OC4(CO)C(O)C4(O)C(=O)C(C)=CC43)C1C2(C)C (configuration not stated)
7,2.17,COC(=O)C1=C2CCC3=C2C2(C1)C1(C)CCC4C(C)CN(CC1CC3)C42O (configuration not stated)
8,3.51,CC1(C(=O)O)CCCC2(C)C3CCC4CC3(C=C4CO)CCC12 (configuration not stated)
9,4.6,C=C(C)C(CC=C(C)C)Cc1c(O)cc(OC)c2c1OC(c1ccc(O)cc1O)CC2=O (configuration not stated)
10,1.32,C/C=C1/CN2CCc3c([nH]c4ccccc34)[C@@](CO)(C(=O)OC)[C@H]1CC2
11,1.79,CC[C@H]1NC2C[C@@]3(C(=O)N(OC)c4ccccc43)C3CC1C2CO3 (some centres not stated)
12,3.08,CCC(O)C(/C=C1\C(=O)C=CC1(O)CCCCCCCC(=O)OC)OC(C)=O (configuration not stated)
13,5.65,C=C(C)C1CCC2(C(=O)O)CCC3(C)C(CCC4C5(C)CCC(OC(=O)/C=C/c6ccc(O)c(O)c6)C(C)(C)C5CCC43C)C12 (configuration not stated)
14,2.78,"C=CCc1ccc(O)c(-c2cc(CC=C)ccc2O)c1 [5,5'-bis(prop-2-en-1-yl)-[1,1'-biphenyl]-2,2'-diol]"
15,3.59,COc1c(C=O)c(O)cc2c1C(=O)c1ccccc1C2=O
16,1.7,COc1cc2c3cc1Oc1c(cccc1OC)CC1c4c(cc(OC)c(OC)c4Oc4cccc(c4)CC3N(C)CC2)CCN1C (configuration not stated)
17,3.48,C=C(C(=O)C(OC(C)=O)C(C)C1C(OC(C)=O)CC2(C)C3C4OC4C4C(C)C(=O)C=CC45CC35CCC12C)C(C)CO (configuration not stated)
18,4.97,CC(=O)OC(CCc1ccccc1)Cc1cc(=O)c2c(o1)OC1(C)CCC(C(C)C)C2C1 (configuration not stated)

# Second part, the compound before the results:
row,Structure (SMILES),LC retention time [min]
1,CC[C@@H]1C(=O)N2CCc3c([nH]c4ccccc34)[C@H]2CC1/C(=C\OC)C(=O)OC (some centres not stated),2.38
2,CC(C)=CCC1CC2(CC=C(C)C)C(O)=C(C(=O)CC(C)C)C(=O)OC2=C(C(CC(=O)O)c2ccccc2)C1(C)C (configuration not stated),6.29
3,CCCCCCCCCCCCO[C@@H]1O[C@@H](C)[C@H](O[C@@H]2O[C@@H](C)[C@H](OC(C)=O)[C@@H](O[C@@H]3O[C@@H](C)[C@H](OC(C)=O)[C@@H](O[C@@H]4O[C@@H](C)[C@H](OC(C)=O)[C@@H](OC(C)=O)[C@H]4O)[C@H]3OC(C)=O)[C@H]2O)[C@@H](O)[C@H]1O,6.09
4,CC[C@H]1C[C@H]2CN3CCc4c([nH]c5ccc(OC)cc45)[C@](C(=O)OC)(C2)C13,2.02
5,COC1=C(C)C(=O)O/C1=C1\OC2CCCN3C(C4CC(C)C(=O)O4)CCC3C2C1C (configuration not stated),1.55
6,"CCCCCCCCCCC/C=C\CC[C@@H]1CCC[C@@H](C)N1 [(2R,6S)-2-methyl-6-[(3Z)-pentadec-3-en-1-yl]piperidine]",4.84
7,C/C(=C\CC/C=C(\C)CC/C=C(\C)CCC(O)C(C)(C)O)CC/C=C(\C)CCC(O)C(C)(C)O (configuration not stated),5.34
8,COc1cc(O)ccc1CCC(c1ccc(O)cc1)c1cc(CCC(=O)c2ccc(O)cc2)c(O)cc1O (configuration not stated),2.1
9,COc1cc(-c2oc3cc(OC)c(OC)c(O)c3c(=O)c2OC)ccc1O,2.66
10,CC1=C(O)C(=O)C=C2C1=CC=C1[C@@]2(C)CC[C@@]2(C)[C@@H]3C[C@](C)(C(=O)O)CC[C@]3(C)CC[C@]12C,5.33
11,COc1ccc(C(=O)[C@@H](c2coc3cc(O)ccc3c2=O)C(c2ccc(O)cc2)c2ccc(O)cc2)c(O)c1,3.14
12,COc1cc(CC(COC(C)=O)C(COC(=O)/C=C/c2ccc(O)c(O)c2)Cc2ccc(O)c(OC)c2)ccc1O (configuration not stated),1.83
13,CC1CC2CC3CCCC(=O)N3C3CCC(O)C(C1)N23 (configuration not stated),0.92
14,C=C(C(=O)C(O)C(C)C1C(OC(C)=O)CC2(C)C3CC(O)C4C(C)C(=O)C=CC45CC35CCC12C)C(C)CO (configuration not stated),3.41
15,CC(C)=CCc1c2c(c(O)c3c1OC14C(=CC5CC1C(C)(C)OC4(CC=C(C)C(=O)O)C5=O)C3=O)C=CC(C)(C)O2 (configuration not stated),5.38
16,COC(=O)CC(C1=C2OC(=O)C(C(=O)CC(C)C)=C(O)C2(CC=C(C)C)CC(CC=C(C)C)C1(C)C)c1ccccc1 (configuration not stated),6.83
17,COc1cc(CCN(C)C)c2ccc3cc4c(c5c3c2c1OC5)OCO4,2.24
18,CCN1CC2(COC(=O)c3ccccc3NC(=O)CCC(=O)O)CCC(OC)C34C5CC6C(OC)CC(O)(C5C6OC)C(O)(C(OC)C23)C14 (configuration not stated),2.22
19,CC1CCC2(C)C(CCC3OC32C)C1(C)CC(=O)c1ccoc1 (configuration not stated),3.41
